Data published in BindingDB's records for doi:10.1016/j.ejmech.2019.111668 (Yantai University, 2019).

Assays:
[1] = Reversal of P-gp-mediated multidrug resistance in human KBV cells assessed as potentiation of irinotecan-induced cytotoxicity by measuring irinotecan IC50 at 5 uM after 72 hrs by MTT assay (Rvb = 49.2 +/- 0.46 nM)
[2] = Reversal of P-gp-mediated multidrug resistance in human KBV cells assessed as potentiation of irinotecan-induced cytotoxicity by measuring irinotecan IC50 at 10 uM after 72 hrs by MTT assay (Rvb = 49.2 +/- 0.46 nM)
[3] = Reversal of P-gp-mediated multidrug resistance in human KBV cells assessed as potentiation of paclitaxel-induced cytotoxicity by measuring paclitaxel IC50 at 5 uM after 72 hrs by MTT assay (Rvb = 352.31 +/- 10.9 nM)
[4] = Reversal of P-gp-mediated multidrug resistance in human KBV cells assessed as potentiation of vincristine-induced cytotoxicity by measuring vincristine IC50 at 5 uM after 72 hrs by MTT assay (Rvb = 2.92 +/- 0.31 nM)
[5] = Reversal of P-gp-mediated multidrug resistance in human KBV cells assessed as potentiation of paclitaxel-induced cytotoxicity by measuring paclitaxel IC50 at 10 uM after 72 hrs by MTT assay (Rvb = 352.31 +/- 10.9 nM)
[6] = Reversal of P-gp-mediated multidrug resistance in human KBV cells assessed as potentiation of vincristine-induced cytotoxicity by measuring vincristine IC50 at 10 uM after 72 hrs by MTT assay (Rvb = 2.92 +/- 0.31 nM)

CC(=O)O[C@H]1C[C@@]2(C)[C@@H](C[C@@H](O)[C@H]3[C@@]4(C)CC[C@@H](O)[C@@H](C)[C@@H]4CC[C@@]32C)/C1=C(\CCC=C(C)C)C(=O)OCc1ccccc1
IC50 [1]: 37200 nM | IC50 [2]: 16200 nM | IC50 [3]: 17 nM | IC50 [4]: 144 nM | IC50 [5]: 7 nM | IC50 [6]: 92 nM
